Test results from patent US20220184183A1, “PHARMACEUTICAL COMPOSITION, FOR PREVENTING OR TREATING INFLAMMATORY DISEASES, COMPRISING OSTEOCALCIN” (GENEROATH CO., LTD., priority 2019, published 2022).
Where no end group is shown, it is not given here.

What was measured:
Type in all cases: cell-based
[1] = test system: skeletal muscle cell line (C2C12); experiment: TNF-α-induced inflammatory cytokine production in skeletal muscle cells (ELISA, Real-Time PCR, western blot)
Method: (§1) First, skeletal muscle cell lines (C2C12) were obtained. Undercarboxylated osteocalcin (ucOCN, purchased from Bachem, Switzerland) was treated in a medium (DMEM medium containing 10% heat-inactivated fetal bovine serum (FBS), 100 U/mL of penicillin and […] of streptomycin, hereinafter the same) at four different concentrations of 0 ng/ml, 0.5 ng/ml, 5 ng/ml and 50 ng/ml, and skeletal muscle cell lines (C2C12) were prepared in three groups and cultured and pre-treated at 5% CO2, 37° C. for 8 hours, 24 hours, and 48 hours, respectively.
(§2) In order to induce an inflammatory response, each medium was treated with 10 ng/ml of TNF-α (purchased from Peprotech, USA), and cultured for 8 hours under the same conditions.
In order to observe the change in the expression level of TNF-α-induced inflammatory cytokines (TNF-α, IL-1β and IL-6) in skeletal muscle cells due to undercarboxylated osteocalcin, the following experiment was performed.
In the cells obtained from Example 1.1 above, the concentrations of TNF-α, IL-1β and IL-6 were measured through ELISA, and the expression levels of RNA and protein of IL-1β and IL-6 were identified through Real-Time PCR and western blot.

[2] = test system: skeletal muscle cell line (C2C12); experiment: Level of reactive oxygen species in TNF-α-stimulated skeletal muscle cells (DAPI and CellRox staining); details: ucOCN 0.5 and 5 ng/ml vs untreated group, TNF-α 10 ng/ml, FIG. 3
Method: as §1, §2
In order to identify the level of reactive oxygen species (ROS) in the undercarboxylated osteocalcin-treated cells by being induced inflammatory response with TNF-α in skeletal muscle cells, the following experiment was performed.
The cells obtained in Example 1.1 above were stained with DAPI and CellRox, and observed under a microscope.

JNK, p38 MAPK, and NF-κB = experiment: Subcellular signaling in TNF-α-stimulated skeletal muscle cells (western blot); details: C2C12; ucOCN 0.5 ng/ml pretreatment 1, 10, 30 minutes; TNF-α 10 ng/ml; FIG. 4
Method: In order to observe the effect of undercarboxylated osteocalcin on the subcellular signaling process on the inflammatory response induced by TNF-α in skeletal muscle cells, the following experiment was performed.
(§3) Undercarboxylated osteocalcin (ucOCN) was treated at a concentration of 0.5 ng/ml in the medium (DMEM medium containing 10% heat-inactivated fetal bovine serum (FBS), 100 U/mL of penicillin and […] of streptomycin, hereinafter the same), and skeletal muscle cell lines (C2C12) were prepared in three groups, and cultured and pre-treated at 5% CO2, 37° C. for 1 minute, 10 minutes, and 30 minutes, respectively.
(§4) In order to induce an inflammatory response, each medium was treated with TNF-α 10 ng/ml, and cultured for 8 hours under the same conditions.
For the cultured cells of each group, the protein amount and phosphorylation level of JNK, p38 MAPK, and NF-κB in each group were measured through western blot.

NF-κB = experiment: Inhibition of TNF-α-induced NF-κB activity in skeletal muscle cells (western blot, immunofluorescence)
Method: In order to observe the effect of undercarboxylated osteocalcin on the activity of NF-κB induced by TNF-α in skeletal muscle cells, the following experiment was performed.
as §3, §4
For the cultured cells of each group, the phosphorylation level and the protein amounts in the nucleus of IκBα, IKK (hereinafter, intracytoplasmic) and P65 NF-κB in each group were measured through western blot, and immunofluorescence analysis for each group was performed.

[3] = test system: macrophage cell lines (RAW 264.7); experiment: TNF-α-induced inflammatory cytokines and inflammatory mediating enzyme proteins in immune cells (ELISA, western blot); details: ucOCN 0.5, 5, 50 ng/ml pretreatment 8, 24, 48 hours, then TNF-α 10 ng/ml 8 hours, FIGS. 7 and 8
Method: First, macrophage cell lines (RAW 264.7) were obtained as immune cells. Undercarboxylated osteocalcin (ucOCN) was treated in a medium at four different concentrations of 0 ng/ml, 0.5 ng/ml, 5 ng/ml and 50 ng/ml, and macrophage cell lines were prepared in three groups and cultured and pre-treated at 5% CO2, 37° C. for 8 hours, 24 hours, and 48 hours, respectively.
In order to induce an inflammatory response, each medium was treated with 10 ng/ml of TNF-α, and cultured for 8 hours under the same conditions to obtain a supernatant.
In order to observe changes in the expression level of TNF-α-induced inflammatory cytokines (TNF-α and IL-6) and inflammatory mediating enzyme proteins (iNOS and COX-2) in immune cells by undercarboxylated osteocalcin, the following experiments were performed.
In each supernatant obtained from Example 2.1 above, the concentrations of TNF-α, IL-1β and IL-6 were measured through ELISA, and the expression level of […] was identified through western blot.

NF-κB promoter = experiment: TNF-α-induced NF-κB promoter (luciferase) activity; details: stated in the description, no method given

“undercarboxylated osteocalcin (YLYQWLGAPVPYPDPLEPRREVCELNPDCDELADHIGFQEAYRRFYGPV; not fully specified; ends and bridges not checked; UniProt P02818 52-100, looked up) [osteocalcin in which at least one of the three gamma-carboxylglutamate residues is not γ-carboxylated; purchased from Bachem, Switzerland]” was tested, and the IL-1β production ([1]; TNF-α 10 ng/ml, FIG. 1) was “inhibitory effect of IL-1β production among inflammatory cytokines was remarkably shown”, the “IL-1β production (protein amount)” value ([1]; all treatment concentrations of ucOCN (0.5, 5, 50 ng/ml), FIG. 2) was “remarkable production inhibitory effect” and the “inhibition of inflammatory cytokine production by treatment time” value ([1]; group treated with ucOCN for 8 hours and 48 hours, FIG. 1) was “remarkably excellent inhibitory effect”. The “TNF-α (protein amount)” value ([1]; group treated with ucOCN for 8 hours, FIG. 2) was “excellent inhibitory effect”, the “IL-6 (protein amount)” value ([1]; ucOCN 0.5 ng/ml and 5 ng/ml within 24 hours, FIG. 2) was “remarkable inhibitory effect” and the “production of inflammatory cytokines TNF-α, IL-1β and IL-6” value ([1]; ucOCN 0.5, 5, 50 ng/ml pretreatment 8, 24, 48 hours, then TNF-α 10 ng/ml 8 hours, FIG. 1) was “inhibited the production of inflammatory cytokines”. The “level of reactive oxygen species” value [2] was “significantly inhibited”, the “protein amount of NF-κB” value (JNK, p38 MAPK, and NF-κB) was “significantly inhibited” and the “protein amounts and phosphorylation levels of JNK and p38 MAPK” value (JNK, p38 MAPK, and NF-κB) was “significantly inhibited”. For the same substance, the “cytoplasmic-to-nuclear translocation of NF-κB induced by TNF-α” value (NF-κB; C2C12, immunofluorescence analysis, FIG. 6) was “inhibited cytoplasmic-to-nuclear translocation of NF-κB”, the “PHOPHO-IκBα and total IκBα (TNF-α alone: phospho increased, total decreased)” value (NF-κB; C2C12 cytoplasm, ucOCN 0.5 ng/ml, TNF-α 10 ng/ml, FIG. 5) was “showed the opposite result” and the “production of inflammatory cytokines TNF-α, IL-1β, IL-6 and inflammatory mediating enzyme proteins iNOS and COX-2” value [3] was “inhibited the production of inflammatory cytokines and inflammatory mediating enzyme proteins”. The “TNF-α-induced NF-κB luciferase activity” value (NF-κB promoter) was “significantly inhibits”.
